Results as given in patent publication US20070123546A1, “2-amino-7,8-dihydro-6H-pyrido[4,3-d]pyrimidin-5-ones” (Chiron Corporation, priority 2005, published 2007).

Target: His-tagged N-terminal ATP binding domain (amino acid residues 9-236) of HSP90α (Homo sapiens, UniProt P07900)
Assay: HSP90 inhibitor binding potency: TRF competition binding assay
Conditions: Table 3; competition with biotinylated radicicol
Procedure, shortened: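 Competition against biotinylated radicicol for binding to the His-tagged 9-236 ATP domain of HSP90α: 2 h, room temperature, HEPES/MgCl2/KCl/BSA buffer. Streptavidin capture, then europium-labeled anti-His antibody and enhancement solution; europium counts give IC50.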

| IC50 [µM] | Structure (SMILES) |
| --- | --- |
| < 10 | COc1cncc(-c2cc(F)ccc2[C@H]2Cc3nc(N)nc(C)c3C(=O)N2CC(C)(C)N2CCOCC2)n1 [Compound 133, (R)-2-Amino-7-[4-fluoro-2-(6-methoxy-pyrazin-2-yl)-phenyl]-4-methyl-6-(2-methyl-2-morpholin-4-yl-propyl)-7,8-dihydro-6H-pyrido[4,3-d]pyrimidin-5-one] |
| < 10 | COc1cccc(-c2cc(F)ccc2[C@H]2Cc3nc(N)nc(C)c3C(=O)N2Cc2ccccc2)n1 [Compound 134, (R)-2-Amino-6-benzyl-7-[4-fluoro-2-(6-methoxy-pyridin-2-yl)-phenyl]-4-methyl-7,8-dihydro-6H-pyrido[4,3-d]pyrimidin-5-one] |
| < 10 | COc1ncccc1-c1cc(F)ccc1[C@H]1Cc2nc(N)nc(C)c2C(=O)N1Cc1ccccc1 [Compound 135, (R)-2-Amino-6-benzyl-7-[4-fluoro-2-(2-methoxy-pyridin-3-yl)-phenyl]-4-methyl-7,8-dihydro-6H-pyrido[4,3-d]pyrimidin-5-one] |
| < 10 | COc1cncc(-c2cc(F)ccc2[C@H]2Cc3nc(N)nc(C)c3C(=O)N2Cc2ccccc2)n1 [Compound 136, (R)-2-Amino-6-benzyl-7-[4-fluoro-2-(6-methoxy-pyrazin-2-yl)-phenyl]-4-methyl-7,8-dihydro-6H-pyrido[4,3-d]pyrimidin-5-one] |
| < 10 | Cc1nc(N)nc2c1C(=O)N(Cc1ccccc1)[C@@H](c1ccc(F)cc1-c1cccc(F)c1F)C2 [Compound 138, (R)-2-Amino-6-benzyl-4-methyl-7-(5,2′,3′-trifluoro-biphenyl-2-yl)-7,8-dihydro-6H-pyrido[4,3-d]pyrimidin-5-one] |
| > 10 | COc1ccc(-c2cc(F)ccc2[C@H]2Cc3nc(N)nc(C)c3C(=O)N2Cc2ccccc2)cc1F [Compound 139, (R)-2-Amino-6-benzyl-7-(5,3′-difluoro-4′-methoxy-biphenyl-2-yl)-4-methyl-7,8-dihydro-6H-pyrido[4,3-d]pyrimidin-5-one] |
| < 10 | Cc1nc(N)nc2c1C(=O)N(Cc1ccccc1)[C@@H](c1ccc(F)cc1-c1cccnc1)C2 [Compound 140, (R)-2-Amino-6-benzyl-7-(4-fluoro-2-pyridin-3-yl-phenyl)-4-methyl-7,8-dihydro-6H-pyrido[4,3-d]pyrimidin-5-one] |
| > 10 | COc1ncc(-c2cc(F)ccc2[C@H]2Cc3nc(N)nc(C)c3C(=O)N2Cc2ccccc2)c(OC)n1 [Compound 141, (R)-2-Amino-6-benzyl-7-[2-(2,4-dimethoxy-pyrimidin-5-yl)-4-fluoro-phenyl]-4-methyl-7,8-dihydro-6H-pyrido[4,3-d]pyrimidin-5-one] |
| > 10 | Cc1ccc(-c2cc(F)ccc2[C@H]2Cc3nc(N)nc(C)c3C(=O)N2Cc2ccccc2)c(F)c1 [Compound 142, (R)-2-Amino-6-benzyl-7-(5,2′-difluoro-4′-methyl-biphenyl-2-yl)-4-methyl-7,8-dihydro-6H-pyrido[4,3-d]pyrimidin-5-one] |
| < 10 | Cc1nc(N)nc2c1C(=O)N(Cc1ccccc1)[C@@H](c1ccc(F)cc1-c1cccnc1F)C2 [Compound 143, (R)-2-Amino-6-benzyl-7-[4-fluoro-2-(2-fluoro-pyridin-3-yl)-phenyl]-4-methyl-7,8-dihydro-6H-pyrido[4,3-d]pyrimidin-5-one] |
| > 10 | COc1cccc(-c2cc(F)ccc2[C@H]2Cc3nc(N)nc(C)c3C(=O)N2Cc2ccccc2)c1F [Compound 144, (R)-2-Amino-6-benzyl-7-(5,2′-difluoro-3′-methoxy-biphenyl-2-yl)-4-methyl-7,8-dihydro-6H-pyrido[4,3-d]pyriniidin-5-one] |
| < 10 | COc1ncc(-c2cc(F)ccc2[C@H]2Cc3nc(N)nc(C)c3C(=O)N2)nc1OC [Compound 145, 2-Amino-7-[2-(5,6-dimethoxy-pyrazin-2-yl)-4-fluoro-phenyl]-4-methyl-7,8-dihydro-6H-pyrido[4,3-d]pyrimidin-5-one] |
| < 10 | COc1cncc(-c2cc(F)ccc2[C@H]2Cc3nc(N)nc(C)c3C(=O)N2CCC(C)C)n1 [Compound 146, (R)-2-Amino-7-[4-fluoro-2-(6-methoxy-pyrazin-2-yl)-phenyl]-4-methyl-6-(3-methyl-butyl)-7,8-dihydro-6H-pyrido[4,3-d]pyrimidin-5-one] |
| < 10 | COc1ncc(-c2cc(F)ccc2[C@H]2Cc3nc(N)nc(C)c3C(=O)N2CCC(C)C)nc1OC [Compound 147, (R)-2-Amino-7-[-(5,6-dimethoxy-pyrazin-2-yl)-4-fluoro-phenyl]-4-methyl-6-(3-methyl-butyl)-7,8-dihydro-6H-pyrido[4,3-d]pyrimidin-5-one] |
| > 10 | Cc1nc(N)nc2c1C(=O)N(CCC(C)C)[C@@H](c1ccc(F)cc1Br)C2 [Compound 148, (R)-2-Amino-7-(2-bromo-4-fluoro-phenyl)-4-methyl-6-(3-methyl-butyl)-7,8-dihydro-6H-pyrido[4,3-d]pyrimidin-5-one] |
| > 10 | Cc1nc(N)nc2c1C(=O)N(CC(C)C)[C@@H](c1ccc(F)cc1Br)C2 [Compound 149, (R)-2-Amino-7-(2-bromo-4-fluoro-phenyl)-6-isobutyl-4-methyl-7,8-dihydro-6H-pyrido[4,3-d]pyrimidin-5-one] |
| < 10 | COc1cccc(-c2cc(F)ccc2[C@H]2Cc3nc(N)nc(C)c3C(=O)N2CCC(C)C)n1 [Compound 150, (R)-2-Amino-7-[4-fluoro-2-(6-methoxy-pyridin-2-yl)-phenyl]-4-methyl-6-(3-methyl-butyl)-7,8-dihydro-6H-pyrido[4,3-d]pyrimidin-5-one] |
| < 10 | Cc1nc(N)nc2c1C(=O)N(CCC(C)C)[C@@H](c1ccc(F)cc1-c1cccnc1F)C2 [Compound 151, (R)-2-Amino-7-[4-fluoro-2-(2-fluoro-pyridin-3-yl)-phenyl]-4-methyl-6-(3-methyl-butyl)-7,8-dihydro-6H-pyrido[4,3-d]pyrimidin-5-one] |
| < 10 | COc1ncccc1-c1cc(F)ccc1[C@H]1Cc2nc(N)nc(C)c2C(=O)N1CCC(C)C [Compound 152, (R)-2-Amino-7-[4-fluoro-2-(2-methoxy-pyridin-3-yl)-phenyl]-4-methyl-6-(3-methyl-butyl)-7,8-dihydro-6H-pyrido[4,3-d]pyrimidin-5-one] |
| < 10 | COc1ccncc1-c1cc(F)ccc1[C@H]1Cc2nc(N)nc(C)c2C(=O)N1CCC(C)C [Compound 153, (R)-2-Amino-7-[4-fluoro-2-(4-methoxy-pyridin-3-yl)-phenyl]-4-methyl-6-(3-methyl-butyl)-7,8-dihydro-6H-pyrido[4,3-d]pyrimidin-5-one] |
| < 10 | COc1cncc(-c2cc(F)ccc2[C@H]2Cc3nc(N)nc(C)c3C(=O)N2CC(C)C)n1 [Compound 154, (R)-2-Amino-7-[4-fluoro-2-(6-methoxy-pyrazin-2-yl)-phenyl]-6-isobutyl-4-methyl-7,8-dihydro-6H-pyrido[4,3-d]pyrimidin-5-one] |
| < 10 | COc1cccc(-c2cc(F)ccc2[C@H]2Cc3nc(N)nc(C)c3C(=O)N2CC(C)C)n1 [Compound 155, (R)-2-Amino-7-[4-fluoro-2-(6-methoxy-pyridin-2-yl)-phenyl]-6-isobutyl-4-methyl-7,8-dihydro-6H-pyrido[4,3-d]pyrimidin-5-one] |
| < 10 | COc1ncc(-c2cc(F)ccc2[C@H]2Cc3nc(N)nc(C)c3C(=O)N2CC(C)C)nc1OC [Compound 156, (R)-2-Amino-7-[2-(5,6-dimethoxy-pyrazin-2-yl)-4-fluoro-phenyl]-6-isobutyl-4-methyl-7,8-dihydro-6H-pyrido[4,3-d]pyrimidin-5-one] |
| < 10 | Cc1nc(N)nc2c1C(=O)N(CC(C)C)[C@@H](c1ccc(F)cc1-c1cccnc1F)C2 [Compound 157, (R)-2-Amino-7-[4-fluoro-2-(2-fluoro-pyridin-3-yl)-phenyl]-6-isobutyl-4-methyl-7,8-dihydro-6H-pyrido[4,3-d]pyrimidin-5-one] |
| < 10 | COc1ncccc1-c1cc(F)ccc1[C@H]1Cc2nc(N)nc(C)c2C(=O)N1CC(C)C [Compound 158, (R)-2-Amino-7-[4-fluoro-2-(2-methoxy-pyridin-3-yl)-phenyl]-isobutyl-4-methyl-7,8-dihydro-6H-pyrido[4,3-d]pyrimidin-5-one] |
| > 10 | COc1ccncc1-c1cc(F)ccc1[C@H]1Cc2nc(N)nc(C)c2C(=O)N1CC(C)C [Compound 159, (R)-2-Amino-7-[4-fluoro-2-(4-methoxy-pyridin-3-yl)-phenyl]-6-isobutyl-4-methyl-7,8-dihydro-6H-pyrido[4,3-d]pyrimidin-5-one] |
| < 10 | COc1cccc(-c2cc(F)ccc2[C@H]2Cc3nc(N)nc(C)c3C(=O)N2Cc2ccc(F)cc2)n1 [Compound 160, (R)-2-Amino-6-(4-fluoro-benzyl)-7-[4-fluoro-2-(6-methoxy-pyridin-2-yl)-phenyl]-4-methyl-7,8-dihydro-6H-pyrido[4,3-d]pyrimidin-5-one] |
| < 10 | COc1cncc(-c2cc(F)ccc2[C@H]2Cc3nc(N)nc(C)c3C(=O)N2Cc2ccc(F)cc2)n1 [Compound 161, (R)-2-Amino-6-(4-fluoro-benzyl)-7-[4-fluoro-2-(6-methoxy-pyrazin-2-yl)-phenyl]-4-methyl-7,8-dihydro-6H-pyrido[4,3-d]pyrimidin-5-one] |
| < 10 | COc1nc(-c2cc(F)ccc2[C@H]2Cc3nc(N)nc(C)c3C(=O)N2Cc2ccc(F)cc2)cnc1N [Compound 162, (R)-2-Amino-7-[2-(5-amino-6-methoxy-pyrazin-2-yl)-4-fluoro-phenyl]-6-(4-fluoro-benzyl)-4-methyl-7,8-dihydro-6H-pyrido[4,3-d]pyrimidin-5-one] |
| < 10 | COc1nc(-c2cc(F)ccc2[C@H]2Cc3nc(N)nc(C)c3C(=O)N2CC(C)C)cnc1N [Compound 163, (R)-2-Amino-7-[2-(5-amino-6-methoxy-pyrazin-2-yl)-4-fluoro-phenyl]-6-isobutyl-4-methyl-7,8-dihydro-6H-pyrido[4,3-d]pyrimidin-5-one] |
